The structures appear in SMILES notation.

GLP-1R, sequence (P43220 24-463): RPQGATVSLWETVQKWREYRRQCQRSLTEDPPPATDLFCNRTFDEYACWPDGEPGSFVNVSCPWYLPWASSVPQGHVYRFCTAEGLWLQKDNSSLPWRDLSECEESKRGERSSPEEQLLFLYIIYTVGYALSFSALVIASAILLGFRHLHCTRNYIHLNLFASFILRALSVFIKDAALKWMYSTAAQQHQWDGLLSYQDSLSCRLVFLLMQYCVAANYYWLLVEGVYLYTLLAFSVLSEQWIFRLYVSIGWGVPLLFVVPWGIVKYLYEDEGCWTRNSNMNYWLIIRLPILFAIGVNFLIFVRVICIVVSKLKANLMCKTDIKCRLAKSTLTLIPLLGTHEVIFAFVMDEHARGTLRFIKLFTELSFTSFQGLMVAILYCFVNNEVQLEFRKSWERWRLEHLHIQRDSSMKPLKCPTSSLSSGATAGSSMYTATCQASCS

The experiment has as its target GLP-1R (Homo sapiens, UniProt P43220). Put plainly: GLP-1R Activation - cAMP Assay 1. The experiment is classed as cell-based. The conditions noted are these: cAMP increase in CHO cells stably expressing GLP-1R; 30 minutes incubation; 10 point dose response. How it is done:
GLP-1R Activation—cAMP Assay 1
GLP-1R activation by a compound of the present disclosure was quantified by measuring cAMP increase in CHO cells stably expressing GLP-1R (MultiSpan product #C1267-1a). The cells were harvested and plated in growth medium (DMEM/F-12 (Corning product #10-090-CV) supplemented with 10% FBS (HyClone product #SH30071-03), penicillin/streptomycin (Corning product #30-002CI) and 10 µg/ml puromycin (Gibco product #A11138-03)) at 1,000 cells/well in a 384-well plate (Greiner product #781080). The cells were then incubated overnight at 37° C., 5% CO2. The next day, the medium was removed and the cells were washed with DPBS (Corning product #21-031-CM) before adding the assay medium (HBSS, Corning product #21-023-CV) with 20 mM Hepes (Gibco product #15630-080) and 0.1% BSA (Rockland Immunochemicals product #BSA-1000)). Following the medium change, the cells were incubated for 1 hour at 37° C., 5% CO2. The tested GLP-1 compound was added to the cells in a 10 point dose response followed by a 30 minutes incubation at 37° C., 5% CO2. cAMP concentration increase was then detected using Cisbio's cAMP Gs Dynamic Kit (product #62AM4PEC) according to the manufacturer's protocol. The response was plotted against the log of the agonist concentration and fitted to a sigmoidal equation to determine the EC50.
As a reminder, the EC50 is the midpoint of the concentration-response curve. Read a low EC50 as higher potency in that assay. In the case of `COCCn1c(CN2CCC(c3cccc(OCc4cccc5c4OC(F)(F)O5)n3)CC2)nc2ccc(C(=O)O)cc21` [Example 1, 2-((4-(6-((2,2-difluorobenzo[d][1,3]dioxol-4-yl)methoxy)pyridin-2-yl)piperidin-1-yl)methyl)-1-(2-methoxyethyl)-1H-benzo[d]imidazole-6-carboxylic acid], the half-maximal effective concentration (EC50) stood at 0.0285 µM.
As for `COCCn1c(CN2CCC(c3cccc(OCc4ccc(C(O)(C(F)(F)F)C(F)(F)F)cc4)n3)CC2)nc2ccc(C(=O)O)cc21` [Example 2, 2-((4-(6-((4-(1,1,1,3,3,3-hexafluoro-2-hydroxypropan-2-yl)benzyl)oxy)pyridin-2-yl)piperidin-1-yl)methyl)-1-(2-methoxyethyl)-1H-benzo[d]imidazole-6-carboxylic acid], the figure is 1.26 µM; as for `COCCn1c(CN2CCC(c3cccc(OCc4ccc5ncccc5c4)n3)CC2)nc2ccc(C(=O)O)cc21` [Example 3, 1-(2-methoxyethyl)-2-((4-(6-(quinolin-6-ylmethoxy)pyridin-2-yl)piperidin-1-yl)methyl)-1H-benzo[d]imidazole-6-carboxylic acid], 0.0324 µM; as for `COCCn1c(CN2CCC(c3cccc(OCc4ccc(Cl)c5ccccc45)n3)CC2)nc2ccc(C(=O)O)cc21` [Example 4, 2-((4-(6-((4-chloronaphthalen-1-yl)methoxy)pyridin-2-yl)piperidin-1-yl)methyl)-1-(2-methoxyethyl)-1H-benzo[d]imidazole-6-carboxylic acid], 0.0399 µM.
The figure for `COCCn1c(CN2CCC(c3cccc(OCc4cccc5ccccc45)n3)CC2)nc2ccc(C(=O)O)cc21` [Example 5, 1-(2-methoxyethyl)-2-((4-(6-(naphthalen-1-ylmethoxy)pyridin-2-yl)piperidin-1-yl)methyl)-1H-benzo[d]imidazole-6-carboxylic acid] is 0.0506 µM; for `COCCn1c(CN2CCC(c3cccc(OCc4ccc5c(c4)OC(F)(F)O5)n3)CC2)nc2ccc(C(=O)O)cc21` [Example 6, 2-((4-(6-((2,2-difluorobenzo[d][1,3]dioxol-5-yl)methoxy)pyridin-2-yl)piperidin-1-yl)methyl)-1-(2-methoxyethyl)-1H-benzo[d]imidazole-6-carboxylic acid] it is 0.0105 µM; for `COCCn1c(CN2CCC(c3cccc(OCc4ccc5c(c4)OCO5)n3)CC2)nc2ccc(C(=O)O)cc21` [Example 7, 2-((4-(6-(benzo[d][1,3]dioxol-5-ylmethoxy)pyridin-2-yl)piperidin-1-yl)methyl)-1-(2-methoxyethyl)-1H-benzo[d]imidazole-6-carboxylic acid] it is 4.92 µM.
Molecule `COCCn1c(CN2CCC(c3cccc(OCc4cccc5c4cnn5C)n3)CC2)nc2ccc(C(=O)O)cc21` [Example 8, 1-(2-methoxyethyl)-2-((4-(6-((1-methyl-1H-indazol-4-yl)methoxy)pyridin-2-yl)piperidin-1-yl)methyl)-1H-benzo[d]imidazole-6-carboxylic acid] came in with an EC50 of 1.31 µM.
Molecule `COCCn1c(CN2CCC(c3cccc(OCc4ccc(S(C)(=O)=O)cc4)n3)CC2)nc2ccc(C(=O)O)cc21` [Example 9, 1-(2-methoxyethyl)-2-((4-(6-((4-(methylsulfonyl)benzyl)oxy)pyridin-2-yl)piperidin-1-yl)methyl)-1H-benzo[d]imidazole-6-carboxylic acid] returned an EC50 of 1.19 µM.
On to `COCCn1c(CN2CCC(c3cccc(OCc4cccc(-c5noc(C)n5)c4)n3)CC2)nc2ccc(C(=O)O)cc21` [Example 10, 1-(2-methoxyethyl)-2-((4-(6-((3-(5-methyl-1,2,4-oxadiazol-3-yl)benzyl)oxy)pyridin-2-yl)piperidin-1-yl)methyl)-1H-benzo[d]imidazole-6-carboxylic acid], for which a half-maximal effect (EC50) was put at 0.0669 µM.
The molecule `COCCn1c(CN2CCC(c3cccc(OCc4ccc(C(=O)N(C)C)cc4F)n3)CC2)nc2ccc(C(=O)O)cc21` [Example 11, 2-((4-(6-((4-(dimethylcarbamoyl)-2-fluorobenzyl)oxy)pyridin-2-yl)piperidin-1-yl)methyl)-1-(2-methoxyethyl)-1H-benzo[d]imidazole-6-carboxylic acid] registered an EC50 of 9.91 µM.
The figure for `COCCn1c(CN2CCC(c3cccc(OCc4ccc(-c5ccccc5)cc4)n3)CC2)nc2ccc(C(=O)O)cc21` [Example 12, 2-((4-(6-([1,1′-biphenyl]-4-ylmethoxy)pyridin-2-yl)piperidin-1-yl)methyl)-1-(2-methoxyethyl)-1H-benzo[d]imidazole-6-carboxylic acid] is 1.07 µM; for `C#Cc1ccc(COc2cccc(C3CCN(Cc4nc5ccc(C(=O)O)cc5n4CCOC)CC3)n2)cc1` [Example 13, 2-((4-(6-((4-ethynylbenzyl)oxy)pyridin-2-yl)piperidin-1-yl)methyl)-1-(2-methoxyethyl)-1H-benzo[d]imidazole-6-carboxylic acid] it is 0.0222 µM; for `COCCn1c(CN2CCC(c3cccc(OCc4c(F)c(F)c(F)c(F)c4F)n3)CC2)nc2ccc(C(=O)O)cc21` [Example 14, 1-(2-methoxyethyl)-2-((4-(6-((perfluorophenyl)methoxy)pyridin-2-yl)piperidin-1-yl)methyl)-1H-benzo[d]imidazole-6-carboxylic acid] it is greater than 0.1 µM.
For the molecule `COCCn1c(CN2CCC(c3cccc(OCc4ccc(C#N)c5ccccc45)n3)CC2)nc2ccc(C(=O)O)cc21` [Example 25, 2-((4-(6-((4-cyanonaphthalen-1-yl)methoxy)pyridin-2-yl)piperidin-1-yl)methyl)-1-(2-methoxyethyl)-1H-benzo[d]imidazole-6-carboxylic acid], the 50% effective concentration (EC50) is 0.0113 µM. This lies in the double-digit nanomolar range.
As for `COCCn1c(CN2CCC(c3cccc(OCc4ccc5cnccc5c4)n3)CC2)nc2ccc(C(=O)O)cc21` [Example 26, 2-[[4-[6-(6-isoquinolylmethoxy)-2-pyridyl]-1-piperidyl]methyl]-3-(2-methoxyethyl)benzimidazole-5-carboxylic acid], the figure is 0.0413 µM; as for `COCCn1c(CN2CCC(c3cccc(OCc4ccc5nonc5c4)n3)CC2)nc2ccc(C(=O)O)cc21` [Example 27, 2-((4-(6-(benzo[c][1,2,5]oxadiazol-5-ylmethoxy)pyridin-2-yl)piperidin-1-yl)methyl)-1-(2-methoxyethyl)-1H-benzo[d]imidazole-6-carboxylic acid], 0.0668 µM.
`COCCn1c(CN2CCC(c3cccc(OCc4ccc5ncsc5c4)n3)CC2)nc2ccc(C(=O)O)cc21` [Example 28, 2-((4-(6-(benzo[d]thiazol-6-ylmethoxy)pyridin-2-yl)piperidin-1-yl)methyl)-1-(2-methoxyethyl)-1H-benzo[d]imidazole-6-carboxylic acid] showed an EC50 of 0.0608 µM.
In turn, `COCCn1c(CN2CCC(c3cccc(OCc4ccc(C(C)(C)O)cc4)n3)CC2)nc2ccc(C(=O)O)cc21` [Example 29, 2-((4-(6-((4-(2-hydroxypropan-2-yl)benzyl)oxy)pyridin-2-yl)piperidin-1-yl)methyl)-1-(2-methoxyethyl)-1H-benzo[d]imidazole-6-carboxylic acid] showed a concentration giving a half-maximal response (EC50) of 1.44 µM.
The figure for `COCCn1c(CN2CCC(c3cccc(OCc4ccc(COC)cc4)n3)CC2)nc2ccc(C(=O)O)cc21` [Example 30, 1-(2-methoxyethyl)-2-((4-(6-((4-(methoxymethyl)benzyl)oxy)pyridin-2-yl)piperidin-1-yl)methyl)-1H-benzo[d]imidazole-6-carboxylic acid] is 0.297 µM; for `COCCn1c(CN2CCC(c3cccc(OCc4ccc(Cl)c5occc45)n3)CC2)nc2ccc(C(=O)O)cc21` [Example 31, 2-((4-(6-((7-chlorobenzofuran-4-yl)methoxy)pyridin-2-yl)piperidin-1-yl)methyl)-1-(2-methoxyethyl)-1H-benzo[d]imidazole-6-carboxylic acid] it is 0.029 µM.
On to `COCCn1c(CN2CCC(c3cccc(OCc4cccc5occc45)n3)CC2)nc2ccc(C(=O)O)cc21` [Example 32, 2-((4-(6-(benzofuran-4-ylmethoxy)pyridin-2-yl)piperidin-1-yl)methyl)-1-(2-methoxyethyl)-1H-benzo[d]imidazole-6-carboxylic acid], for which a half-maximal response (EC50) required 0.261 µM.
As for `COCCn1c(CN2CCC(c3cccc(OCc4cccc5[nH]cnc45)n3)CC2)nc2ccc(C(=O)O)cc21` [Example 33, 2-((4-(6-((1H-benzo[d]imidazol-4-yl)methoxy)pyridin-2-yl)piperidin-1-yl)methyl)-1-(2-methoxyethyl)-1H-benzo[d]imidazole-6-carboxylic acid], the figure is greater than 10 µM; as for `COCCn1c(CN2CCC(c3cccc(OCc4cccc5scnc45)n3)CC2)nc2ccc(C(=O)O)cc21` [Example 34, 2-((4-(6-(benzo[d]thiazol-4-ylmethoxy)pyridin-2-yl)piperidin-1-yl)methyl)-1-(2-methoxyethyl)-1H-benzo[d]imidazole-6-carboxylic acid], 0.0198 µM.
As for `COCCn1c(CN2CCC(c3cccc(OCc4ccc5ccncc5c4)n3)CC2)nc2ccc(C(=O)O)cc21` [Example 35, 2-((4-(6-(isoquinolin-7-ylmethoxy)pyridin-2-yl)piperidin-1-yl)methyl)-1-(2-methoxyethyl)-1H-benzo[d]imidazole-6-carboxylic acid], the figure is 0.0485 µM.

The values above are taken from patent publication US12180197B2, “GLP-1R modulating compounds” (Gilead Sciences, Inc., priority 2021, dated 2024).
